In brackets after ≈: the same amount, converted by molar mass. Several values for one entry are separate records, joined by “and”; a condition that tells them apart may be missing. Equal entries are not always repeated.
Assays:
[1] = tested on: K. pneumoniae ATCC 13883; test: Agar well diffusion, K. pneumoniae; type: cell-based; conditions: Klebsiella pneumoniae, ATCC13883; 100 μl of test compound 20 mg/ml in DMF; ciprofloxacin and fluconazole 30 μg/ml; 24 h; mean ± SD; read-out: diameters of inhibition zone, K. pneumoniae ATCC 13883
Procedure: (§1) The antimicrobial activity was tested against Gram positive bacteria: Bacillus cereus (B. cereus ATCC 6629), Bacillus subtilis (B. subtilis ATCC 6633), Staphylococcus aureus (S. aureus ATCC 6538), Gram negative bacteria: Klebsiella pneumoniae (K. pneumoniae ATCC 13883), Pseudomonas aeruginosa (P. aeruginosa ATCC 27953) and Candida albicans (C. albicans ATCC 10231). Glycerol stocks were thawed upon need and propagated into nutrient broth at 37 °C. The antibacterial activity of the compounds 9-32 was carried out in vitro using the agar well diffusion method, originally reported by […] and Bauer and coworkers and described by the National Committee for Clinical Laboratory Standards (NCCLS). Bacterial strains, adjusted at […] (equivalent to 0.5 McFarland), were used to inoculate nutrient agar plates. 9-mm diameter wells were punched into the solidified nutrient agar plates using sterile cork borer and 100 μl samples of the test compounds, dissolved in dimethyl formamide (DMF) at 20 mg/ml concentrations, were added and allowed to diffuse at 4 °C for 2 h. Subsequently, the plates were incubated overnight in an upright position at 37 °C. DMF was used as a negative control while ciprofloxacin and fluconazole (30 μg/ml) served as positive controls. After 24 h incubation, the diameters of the growth inhibition zones were recorded in mm. Data was expressed as mean ± standard deviation of three replicates.

[2] = tested on: S. aureus ATCC 6538; test: Agar well diffusion, S. aureus; type: cell-based; conditions: Staphylococcus aureus, ATCC6538; 100 μl of test compound 20 mg/ml in DMF; ciprofloxacin and fluconazole 30 μg/ml; 24 h; mean ± SD; read-out: diameters of inhibition zone, S. aureus ATCC 6538
Procedure: as §1

[3] = tested on: B. subtilis ATCC 6633; test: Agar well diffusion, B. subtilis; type: cell-based; conditions: Bacillus subtilis, ATCC6633; 100 μl of test compound 20 mg/ml in DMF; ciprofloxacin and fluconazole 30 μg/ml; 24 h; mean ± SD; read-out: diameters of inhibition zone, B. subtilis ATCC 6633
Procedure: as §1

[4] = tested on: P. aeruginosa ATCC 27953; test: Inhibition of exopolysaccharide (EPS) production; type: cell-based, Pseudomonas aeruginosa; conditions: means ± standard errors
Procedure: The inhibition of exopolysaccharide production by P. aeruginosa ATCC 27953 using quinazolinone derivatives was assessed according to total carbohydrate measurement.
P. aeruginosa’s biofilm was grown in the presence or absence of compounds (19, 20). Cells were incubated for 1 h with an equal volume of 5% (v/v) phenol and 5 × volume of concentrated sulfuric acid containing 0.2% (w/v) hydrazine sulphate then centrifuged at 10,000 g for 10 min (Z 326 K, HERMLE Labortechnik GmbH, Wehingen, Germany). The optical density of the supernatant was measured at 490 nm and the reduction in EPS was calculated as follows: EPSquantification%=OD490ofcontrol-OD490oftest/OD490ofcontrol×100

[5] = tested on: B. cereus ATCC 6629; test: Agar well diffusion, B. cereus; type: cell-based; conditions: Bacillus cereus, ATCC6629; 100 μl of test compound 20 mg/ml in DMF; ciprofloxacin and fluconazole 30 μg/ml; 24 h; mean ± SD; read-out: diameters of inhibition zone, B. cereus ATCC 6629
Procedure: as §1

[6] = tested on: P. aeruginosa ATCC 27953; test: Agar well diffusion, P. aeruginosa; type: cell-based; conditions: Pseudomonas aeruginosa, ATCC27953; 100 μl of test compound 20 mg/ml in DMF; ciprofloxacin and fluconazole 30 μg/ml; 24 h; mean ± SD; read-out: diameters of inhibition zone, P. aeruginosa ATCC 27953
Procedure: as §1

[7] = tested on: K. pneumoniae ATCC 13883; test: MIC determination, K. pneumoniae; type: cell-based, Klebsiella pneumoniae; conditions: serial dilutions, triplicate; for MIC: Klebsiella pneumoniae, ATCC13883
Procedure: (§2) Serial dilutions of the test compounds were tested to determine their MIC against the most susceptible organisms. The MIC was expressed as the lowest concentration which inhibited the visible growth of the corresponding microorganism. All assays were performed in triplicate.

[8] = tested on: B. subtilis ATCC 6633; test: MIC determination, B. subtilis; type: cell-based, Bacillus subtilis; conditions: serial dilutions, triplicate; for MIC: Bacillus subtilis, ATCC6633
Procedure: as §2

[9] = tested on: P. aeruginosa ATCC 27953; test: Bacterial cell surface hydrophobicity (CSH) assay (MATH / BATH); type: cell-based, Pseudomonas aeruginosa; conditions: increasing concentrations, toluene partition (Fig. 6)
Procedure: The effect of the test compounds 19 and 20 on cell surface hydrophobicity was investigated via the microbial or bacterial adherence to hydrocarbons (MATH / BATH) assay. Exponentially growing culture of P. aeruginosa ATCC 27953 incubated with or without test compounds were centrifuged, the pellets were re-suspended and OD600 was measured using UV/Vis spectrophotometer (Jasco V-630, Tokyo, Japan) to give Ao. The re-suspended cells were vigorously mixed with toluene followed by measuring the OD600 of the aqueous phase to give At. The hydrophobicity index was calculated as follows: Hydrophobicityindex=Ao-At/Ao×100

[10] = tested on: B. cereus ATCC 6629; test: MIC determination, B. cereus; type: cell-based, Bacillus cereus; conditions: serial dilutions, triplicate; for MIC: Bacillus cereus, ATCC6629
Procedure: as §2

[11] = tested on: P. aeruginosa ATCC 27953; test: Biofilm inhibition assay (crystal violet); type: cell-based; conditions: Pseudomonas aeruginosa, ATCC27953, P. aeruginosa ATCC 27953, 24 h
Procedure: Compounds with potential activity against P. aeruginosa ATCC 27953 were tested for the respective biofilm inhibition. The assay was carried out in microtiter plate setup using crystal violet (CV) staining of adherent cells, as modified from.
After 24 h cultivation, the supernatant and planktonic cells were discarded, wells were washed with phosphate buffered saline (PBS) and biofilms were stained with 0.1% CV. CV was subsequently washed then, solubilized with 33% (v/v) glacial acetic acid. The absorbance was measured at 540 nm using SPECTROstar® Nano microplate reader (BMG LABTECH GmbH, Germany). The experiments were performed in triplicate and independently repeated three times. GraphPad Prism 6.0 software was used to estimate the IC50 values, which correspond to […].

[12] = tested on: P. aeruginosa ATCC 27953; test: MIC determination, P. aeruginosa; type: cell-based, Pseudomonas aeruginosa; conditions: serial dilutions, triplicate
Procedure: as §2

[13] = tested on: S. aureus ATCC 6538; test: MIC determination, S. aureus; type: cell-based, Staphylococcus aureus; conditions: Staphylococcus aureus, ATCC6538; serial dilutions, triplicate
Procedure: as §2

[14] = Cell viability MTT assay; type: cell-based; conditions: human, BJ1 cells (normal skin fibroblasts)
Procedure: Cell viability testing at 5 mg/ml was carried out by colorimetric MTT assay on human normal cell line BJ1 (skin fibroblasts) to investigate the toxicity of the most broad spectrum derivatives 9, 15, 16, 18, 19, 20 and 29 (Table 3). The viability of the cells treated with the aforementioned derivatives was more than 87% at 5 mg/ml concentration. This gives indication that the compounds are tolerated and nontoxic for human cells, as the cytotoxic dose was higher than the therapeutic dose on most of microorganisms. It is worth mentioning that the safe limit of the percent of dead cells is not an absolute value and could be more than 10% as reported in previous studies.
The most broad spectrum compounds were evaluated for their cytotoxic activity against BJ1 cell line using colorimetric MTT [3-(4,5-dimethylthiazol-2-yl)-2,5-diphenyltetrazolium bromide] assay.

[15] = tested on: Pseudomonas aeruginosa ATCC 27953; test: Twitching motility assay; type: cell-based; conditions: starting from sub-MIC equal to half the MIC dose
Procedure: 5 µL of overnight-grown bacteria were stab-inoculated into Luria Bertani (LB) soft or quasi-solid plates containing 0.3% agar mixed with different concentrations of compounds 19, 20 and further incubated overnight in an upright position. The visible detectable distance of corrugated trails of twitching zones, away from the inoculation center at the petri dish-agar interface, was measured afterwards. The results were recorded as the average of several diameters’ measurements. DMF was used as a negative control. The experiments were performed in triplicate and represented as the mean of three measurements.

[16] = tested on: methicillin-resistant Staphylococcus aureus (MRSA); set-up: method as in PMID 32927027; conditions: read-out: biofilm formation inhibition IC50; cited from earlier work
[17] = tested on: C. albicans ATCC 10231; test: MIC determination, C. albicans; type: cell-based, Candida albicans; conditions: Candida albicans, ATCC10231; serial dilutions, triplicate
Procedure: as §2

[18] = tested on: C. albicans ATCC 10231; test: Agar well diffusion, C. albicans; type: cell-based; conditions: Candida albicans, ATCC10231; 100 μl of test compound 20 mg/ml in DMF; ciprofloxacin and fluconazole 30 μg/ml; 24 h; mean ± SD; read-out: diameters of inhibition zone, C. albicans ATCC 10231
Procedure: as §1

MIC [7] [µg/mL]	MIC [8] [µg/mL]	melting point [°C]	MIC [10] [µg/mL]	MIC [13] [µg/mL]	SMILES	zone of inhibition at 20000 µg/mL [1] [mm]	zone of inhibition at 20000 µg/mL [2] [mm]	zone of inhibition at 20000 µg/mL [3] [mm]	% EPS inhibition ([4]; 1/4 MIC) [%]	% EPS inhibition ([4]; 1 MIC) [%]	% EPS inhibition ([4]; 2 MIC) [%]	zone of inhibition at 20000 µg/mL [5] [mm]	zone of inhibition at 20000 µg/mL [6] [mm]	viability at 5 mg/ml [14] [%]	other results
–	–	–	–	–	O=C(O)c1cn(C2CC2)c2cc(N3CCNCC3)c(F)cc2c1=O [Ciprofloxacin, reference compound]	26 ± 0.17	23 ± 0.15	33 ± 0.2	1.46 ± 0.28	8.98 ± 0.52	16.54 ± 0.61	29 ± 0.18	35 ± 0.28	–	% EPS inhibition ([4]; 2 MIC, listed as ciprofloxacin): ~ 16%
500 (≈ 1320 µM)	500 (≈ 1320 µM)	156	250 (≈ 662 µM)	15000 ± 500 (≈ 39700 µM)	O=c1c2ccccc2nc(CN2CCCC2)n1N=Cc1ccc([N+](=O)[O-])cc1 [Compound 20, 3-[(4-Nitrobenzylidene)amino]-2-(pyrrolidin-1-ylmethyl)quinazolin-4(3H)-one]	16 ± 0.09	13 ± 0.11	10 ± 0.12	21.51 ± 3.26	47.84 ± 3.00	61.50 ± 2.83	16 ± 0.07	21 ± 0.17	88.1 ± 1.81	MIC, K. pneumoniae ATCC 13883 [7]: 500 ± 290 µg/mL (≈ 1320 µM); MIC, B. subtilis ATCC 6633 [8]: 500 ± 0 µg/mL (≈ 1320 µM); effect on hydrophobicity index (CSH) [9]: reduced hydrophobicity index; MIC, B. cereus ATCC 6629 [10]: 250 ± 0 µg/mL (≈ 662 µM); IC50 [11]: 6.86 µM and 2.59 µg/mL; MIC ([12]; Pseudomonas aeruginosa, ATCC27953): 250 µg/mL (≈ 662 µM); MIC, P. aeruginosa ATCC 27953 [12]: 250 ± 140 µg/mL (≈ 662 µM); effect on twitching motility [15]: remarkably blocked
–	–	–	–	–	Nc1nc(-c2cccc(Br)c2)cc(-c2nc3ccccc3c(=O)[nH]2)n1 [IV]	–	–	–	–	–	–	–	–	–	IC50 [16]: 20.7 µM
2000 (≈ 5520 µM)	1500 ± 290 (≈ 4140 µM)	118 to 120	2500 ± 290 (≈ 6900 µM)	2500 (≈ 6900 µM)	COc1ccc(C=Nn2c(CN3CCCC3)nc3ccccc3c2=O)cc1 [Compound 18, 3-[(4-Methoxybenzylidene)amino]-2-(pyrrolidin-1-ylmethyl)quinazolin-4(3H)-one]	18 ± 0.2	14 ± 0.21	16 ± 0.31	–	–	–	17 ± 0.3	–	87.2 ± 2.34	MIC [17]: 10000 ± 290 µg/mL (≈ 27600 µM); zone of inhibition at 20000 µg/mL [18]: 13 ± 0.14 mm

— article PMC11785708, “Design and synthesis of new quinazolinone derivatives: investigation of antimicrobial and biofilm inhibition effects” (Molecular Diversity, 2024)
